Data on one compound can be found in patent publication US20160220602A1, “USE OF CHINESE MEDICINE PREPARATION IN PREPARING DRUG FOR PREVENTING AND/OR TREATING CROHN'S DISEASE” (TASLY PHARMACEUTICAL GROUP CO., LTD., priority 2013, published 2016).

The test system of this experiment is OXZ-induced SD rat Crohn's disease model. Nature of the experiment: Colon gross damage and histopathological score, OXZ model rats. The format is in vivo, SD rats. As to conditions: 100 mg/kg. As to the method: Grouping: the experiment was carried out by using two ways of intracolonic and intragastric administration. […] There were 10 rats each group. Method for establishing rat model: referring to the Heller method, OXZ was used to induce the SD rat Crohn's disease model (abbreviated as “OXZ model”). Neck and back skin of rats were shaved (2 cm×2 cm). Ethanol was used to prepare 5% (w/v) OXZ solution, and 0.3 ml resultant OXZ solution was dripped on the skin of rats. […] The sensitized rats were adaptively raised for 5 days, […] anesthetized by intraperitoneal injection of pentobarbital sodium. […] After completion, the rats were inverted by lifting tails for 60s to make the solution totally absorbed. […] If the rats manifested dark hair color, body weight loss, poor appetite, lassitude, watery stool or diarrhea, the model establishment was success. Administration method: after successful model establishment by OXZ, the drug was given to rats. The TCM preparation k saline solutions at corresponding dose were administered to the groups of preparation k of all doses and the […] saline solution, a positive drug, administrated to the positive control group. The rats of blank control group were normally fed, given with water and the same volume of normal saline was given in the same administration routes by referring to the dosage regime of aforesaid treatment groups. The rats of model group were administrated with the same volume of normal saline in the same administration routes. The dose of each group was as follows: […] group at 100 mg/kg rat weight, the TCM preparation k high-dose group at 2.023 g raw medicine/kg rat weight, the middle-dose group at 1.012 g raw medicine/kg rat weight and the low-dose group at 0.506 g raw medicine/kg rat weight.

Where [1] appears, read: Table 18: OXZ-model rats, route not printed in title.

Regarding `Nc1ccc(O)c(C(=O)O)c1` [mesalamine, Mesalamine], under “OXZ model rats, intragastric”, the “Gross damage score (Mean ± SD)” value was found to be 1.700 ± 1.494. For the same compound, under setting [1], the “Gross damage score (Mean ± SD)” value is listed as 1.800 ± 1.229 and the “Histopathological score (Mean ± SD)” value was determined as 3.17 ± 1.33.
